Experimental findings from ChEMBL document CHEMBL4028838, “Structure-related protein tyrosine phosphatase 1B inhibition by naringenin derivatives” (Bioorg Med Chem Lett, 2017) are described below.

The IC50 is the concentration that inhibits the measured activity by half.

A short description of test [1]: Inhibition of alpha-glucosidase (unknown origin).
In test [2] the target is T1, Tyrosine-protein phosphatase non-receptor type 1 (Homo sapiens, UniProt P18031).
T1 sequence (P18031 whole entry): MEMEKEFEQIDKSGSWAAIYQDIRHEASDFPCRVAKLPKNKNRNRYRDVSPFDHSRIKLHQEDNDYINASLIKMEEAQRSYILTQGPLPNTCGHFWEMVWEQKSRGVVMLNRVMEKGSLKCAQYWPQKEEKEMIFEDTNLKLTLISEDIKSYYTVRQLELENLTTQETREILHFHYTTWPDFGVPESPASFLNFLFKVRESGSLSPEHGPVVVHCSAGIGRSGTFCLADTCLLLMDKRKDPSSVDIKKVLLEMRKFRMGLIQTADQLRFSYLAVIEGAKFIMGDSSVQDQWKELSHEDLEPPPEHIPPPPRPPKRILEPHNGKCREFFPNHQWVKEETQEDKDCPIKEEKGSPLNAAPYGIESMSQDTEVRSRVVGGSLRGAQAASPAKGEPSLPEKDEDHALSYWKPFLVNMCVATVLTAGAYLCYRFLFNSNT
Kind of test: Inhibition of PTP1B (unknown origin) using pNPP as substrate pretreated for 10 mins followed by substrate addition measured after 20 mins by spectrophotometric method.

Test [3] has as its system HepG2. In words: Anti-diabetic activity in insulin-resistant human HepG2 cells assessed as increase in insulin-stimulated 2-NBDG uptake pretreated for 24 hrs followed by 2-NBDG addition measured after 30 mins by fluorescence assay. The format is functional, cell-based.
Test [4] has as its system HepG2. Kind of test: Anti-diabetic activity in insulin-resistant human HepG2 cells assessed as increase in insulin-stimulated 2-NBDG uptake at 50 uM pretreated for 24 hrs followed by 2-NBDG addition measured after 30 mins by fluorescence assay relative to control. The format is functional.
Test [5] concerns HepG2. Kind of test: Anti-diabetic activity in insulin-resistant human HepG2 cells assessed as increase in insulin-stimulated 2-NBDG uptake at 10 uM pretreated for 24 hrs followed by 2-NBDG addition measured after 30 mins by fluorescence assay relative to control. Format: functional.

Each structure is given as a SMILES string.

Regarding `C[C@@H]1O[C@@H](OC[C@H]2O[C@@H](Oc3cc(O)c4c(c3)O[C@H](c3ccc(O)cc3)CC4=O)[C@H](O)[C@@H](O)[C@@H]2O)[C@H](O)[C@H](O)[C@H]1O` [NARIRUTIN], the half-maximal inhibitory concentration (IC50) was > 200 µM in test [1] and 56.5 µM in test [2]. The Activity result in test [3] is “Dose-dependent effect”; in test [4], 86.93%.
For `CN(C)C(=N)NC(=N)N` [METFORMIN], in test [5], the Activity worked out at 125%.
On to `O=C1C[C@@H](c2ccc(O)cc2)Oc2cc(O)cc(O)c21` [NARINGENIN], for which the IC50 in test [1] is 10.6 µM; in test [2], 130 µM. In addition, the Activity result was “Dose-dependent effect” in test [3] and 71.23% in test [4].
For `O=C1C[C@@H](c2ccc(O)cc2)Oc2cc(O[C@@H]3O[C@H](CO)[C@@H](O)[C@H](O)[C@H]3O)cc(O)c21` [PRUNIN], in that order: 106 µM, 17.5 µM, “Dose-dependent effect” and 109.45%.
For `C[C@@H]1O[C@@H](O[C@H]2[C@H](Oc3cc(O)c4c(c3)O[C@H](c3ccc(O)cc3)CC4=O)O[C@H](CO)[C@@H](O)[C@@H]2O)[C@H](O)[C@H](O)[C@H]1O` [NARINGIN], in that order: > 200 µM, 91.8 µM, “Dose-dependent effect” and 82.17%.
Regarding `C[C@H]1O[C@H](O[C@H]2[C@H](O)[C@@H](O)[C@@H](O[C@H]3[C@H](O)[C@@H](O)C(O)O[C@@H]3CO)O[C@@H]2CO)[C@H](O)[C@@H](O)[C@@H]1N[C@H]1C=C(CO)[C@@H](O)[C@H](O)[C@H]1O` (stereo partly drawn) [ACARBOSE], half-maximal inhibition in test [1] (IC50) required 178 µM.
